Columns and labels:
EpCAM = EpCAM gene expression by qPCR in MTΔECad cells; type: cell-based, mouse; details: qPCR normalized to GAPDH
Procedure: (§1) For the stimulation of MTΔECad cells the following concentrations were used: PPS (5 μg/ml), Indomethacin (50 μM), en Pioglitazone (10 μM).
(§2) Untreated cell lines were employed as negative controls. As read-outs of adipogenesis, several approaches were tested: • 1. Oil red O staining by histochemistry. • 2. Nile Red staining by immuno-fluorescence (IF) • 3. RTqPCR (gene expression analysis) • Adiponectin (adipocyte marker) • EpCam (marker for epithelial cells) FIGS. 15a-d show stimulation schemes; FIGS. 15a-b according to prior art, and FIGS. 15c-15d according to the present invention.
(§3) Inventors studied the effect of treatment of MTΔECad cells with the different compounds and combinations on EpCAM expression as a marker for epithelial cells and Adiponectin expression as a marker for adipocytes.
(§4) Steps performed when measuring gene expression using real-time PCR.
(§5) RNA was first isolated and characterized for quantity and integrity. During a two-step reaction, cDNA was first synthesized and then used as a PCR template. The housekeeping gene GAPDH was used for normalizing the results. A normalization factor has been used for calculating each individual sample. Dividing the fluorescent data by its normalization factor produced the normalized data, which was followed by statistical analysis.

Adiponectin = Adiponectin gene expression by qPCR in MTΔECad cells; type: cell-based, mouse; details: qPCR normalized to GAPDH
Procedure: as §1, §2, §3, §4, §5

Compound | EpCAM gene expression (EpCAM) | adiponectin gene expression (Adiponectin)
COc1ccc2c(c1)c(CC(=O)O)c(C)n2C(=O)c1ccc(Cl)cc1 [Indomethacin] | clearly stimulated EpCAM expression | obviously stimulated adiponectin gene expression
Pentosan polysulphate [PPS] | no significant effect | no effect
